pIC50: −log10 of the molar value. Like-named read-outs stand apart in the source and are kept apart here.

Assay [1] concerns S. aureus SA113 (ATCC 35556). The assay can be described thus: Bacterial growth (A578) and biofilm formation (crystal violet, A595) in 96-well polystyrene microtiter plates. The class given is cell-based, Staphylococcus aureus. The note with it: for pIC50: Staphylococcus aureus, read-out: IB50 (concentration that inhibited 50% biofilm formation); for Cell Growth (%): growth compared to untreated control at the concentration of IB50. The method, then:
An overnight bacterial culture was 200-fold diluted with TSBg, and a 200 μL aliquot of the diluted culture was seeded into each well of 96-well polystyrene microtiter plates and incubated at 37° C. for a designated period of time. Cell growth was determined by measuring the absorbance at 578 nm (A578) with a microtiter plate reader (SpectraMax 340, Molecular Devices). After washing with PBS twice to remove suspended cells, the wells were stained with 0.1% (w/v) crystal violet in 10% ethanol and then treated with 30% acetic acid in dH2O, followed by detecting the absorbance at 595 nm (A595) with the microtiter plate reader to quantify the amount of biofilm formed on polystyrene surface.
An overnight culture of S. aureus SA113 was 200-fold diluted with TSBg, and a 200 μL aliquot of the diluted culture was seeded into each well of 96-well microtiter plates. Compounds purified from medicinal plants were added into each well at a designated concentration up to […]. At 6 hours after seeding, the amounts of biofilms formed in the wells were determined by crystal violet staining as described above. Cells treated with either distilled water or DMSO were used as a control. The amount of biofilm formation by the control group was set as 100%. Each experiment was repeated at least three times, with n=6 for each sample tested. The concentrations of compounds that inhibited 50% biofilm formation (IB50) were calculated based on logistic regression analysis results. Besides, the biofilm formation inhibition rate of a PGG-treated group was calculated using the following equation (1). Biofilm formation inhibition rate(%)=[(A−B)/A]×100 (1) wherein:
In the wells of 96-well microtiter plates, S. aureus SA113 cells were cultured in TSBg broth in the presence of either β-PGG or α-PGG at different amounts (0, 1 and 10 μM). After incubation at 37° C. for 6 hrs, the cell density was determined by measuring the absorbance at 578 nm (A578), and the amounts of biofilm were quantified by crystal violet staining, with the amount of biofilm formed by untreated bacterial cells being set as 100%. Each experiment was repeated three times, with n=6 for each sample tested.
To determine the effect(s) of (β-PGG upon bacterial growth and biofilm formation, β-PGG in various amounts (final concentration: 0, 1.56, 3.13, 6.25, 12.5, 25 and 50 μM) was added into the culture of S. aureus SA113 during seeding into the wells of polystyrene microtiter plates, followed by incubation at 37° C. for 6 hrs or 24 hrs. Cell growth was determined by measuring the absorbance at 578 nm, and the amount of biofilm formed on polystyrene surface was determined at 595 nm after crystal violet staining. In addition to polystyrene surface, the effect of β-PGG in inhibiting biofilm formation on polycarbonate surface was also examined according to the procedures as described in the preceding section entitled “Materials and methods.”

In a further assay the test system is S. aureus. In words: Biofilm formation after treatment with other strong antioxidants (data not shown). It is filed as cell-based, Staphylococcus aureus.
Where [2] appears, read: ATCC35556, 6 hours, logistic regression.

For the compound `O=C(OC[C@H]1O[C@H](OC(=O)c2cc(O)c(O)c(O)c2)[C@H](OC(=O)c2cc(O)c(O)c(O)c2)[C@@H](OC(=O)c2cc(O)c(O)c(O)c2)[C@@H]1OC(=O)c1cc(O)c(O)c(O)c1)c1cc(O)c(O)c(O)c1` [α-PGG, 1,2,3,4,6-Penta-O-galloyl-α-D-glucopyranose], the “viability of S. aureus SA113 cells (A578)” value in assay [1] (1 μM and 10 μM, 6 hour incubation (anomer comparison)) was “did not affect the viability”. The “reduction of biofilm formation” value was found to be 13% in assay [1] (1 μM, 6 hour incubation (anomer comparison)) and 65% in assay [1] (10 μM, 6 hour incubation (anomer comparison)).

With `CC(=O)N[C@@H](CS)C(=O)O` [NAC, N-acetylcysteine, reference compound], in assay [1] (setting [2]), the pIC50 is 2.20. Further, in assay [1], the “Cell Growth (%)” value worked out at 88%.

In the case of `O=C1C=CC(=O)N1c1ccccc1` [NPM, N-phenyl maleimide, reference compound], in assay [1] (setting [2]), the pIC50 is 4.38. Besides, the “Cell Growth (%)” value in assay [1] turned out to be 66%.

In the case of (−)-epigallocatechin gallate, the “influence on biofilm formation” value in the assay with S. aureus is on record as “does not influence biofilm formation”.

With `NC(=O)CI` [IDA, Iodoacetamide, reference compound], the pIC50 in assay [1] (ATCC35556, 6 h) was 3.92. Also, the “Cell Growth (%)” value in assay [1] was 50%.

In the case of `O=C1O[C@H]([C@@H](O)CO)C(O)=C1O` [ascorbic acid], in the assay with S. aureus, the “influence on biofilm formation” value is reported as “does not influence biofilm formation”.

The values are drawn from patent US9181290B2, “Inhibition of biofilm formation by 1,2,3,4,6-penta-O-galloyl-D-glucopyranose” (CHANG GUNG UNIVERSITY, priority 2011, dated 2015).
